Measurements taken from US20240391931A1 (Bristol-Myers Squibb Company, priority 2021, published 2024).
pEC50, pIC50: −log10 of the molar value. Structures can show the parent of a compound that is named as a salt. Where two headings read alike, the source gives them in different places.

Legend:
HER2 WT = biological target: T1, HER2 WT (Homo sapiens, UniProt P04626); experiment: Enzymatic assay HER2 WT (method a); type: biochemical; details: [HER2 WT]=12.5 nM, [ATP]=25 μM, [Peptide 22]=1 μM
T1 construct: purchased ProQinase, Freiburg, Germany ERBB2 0108-0000-1
T1 sequence (P04626 23-1255): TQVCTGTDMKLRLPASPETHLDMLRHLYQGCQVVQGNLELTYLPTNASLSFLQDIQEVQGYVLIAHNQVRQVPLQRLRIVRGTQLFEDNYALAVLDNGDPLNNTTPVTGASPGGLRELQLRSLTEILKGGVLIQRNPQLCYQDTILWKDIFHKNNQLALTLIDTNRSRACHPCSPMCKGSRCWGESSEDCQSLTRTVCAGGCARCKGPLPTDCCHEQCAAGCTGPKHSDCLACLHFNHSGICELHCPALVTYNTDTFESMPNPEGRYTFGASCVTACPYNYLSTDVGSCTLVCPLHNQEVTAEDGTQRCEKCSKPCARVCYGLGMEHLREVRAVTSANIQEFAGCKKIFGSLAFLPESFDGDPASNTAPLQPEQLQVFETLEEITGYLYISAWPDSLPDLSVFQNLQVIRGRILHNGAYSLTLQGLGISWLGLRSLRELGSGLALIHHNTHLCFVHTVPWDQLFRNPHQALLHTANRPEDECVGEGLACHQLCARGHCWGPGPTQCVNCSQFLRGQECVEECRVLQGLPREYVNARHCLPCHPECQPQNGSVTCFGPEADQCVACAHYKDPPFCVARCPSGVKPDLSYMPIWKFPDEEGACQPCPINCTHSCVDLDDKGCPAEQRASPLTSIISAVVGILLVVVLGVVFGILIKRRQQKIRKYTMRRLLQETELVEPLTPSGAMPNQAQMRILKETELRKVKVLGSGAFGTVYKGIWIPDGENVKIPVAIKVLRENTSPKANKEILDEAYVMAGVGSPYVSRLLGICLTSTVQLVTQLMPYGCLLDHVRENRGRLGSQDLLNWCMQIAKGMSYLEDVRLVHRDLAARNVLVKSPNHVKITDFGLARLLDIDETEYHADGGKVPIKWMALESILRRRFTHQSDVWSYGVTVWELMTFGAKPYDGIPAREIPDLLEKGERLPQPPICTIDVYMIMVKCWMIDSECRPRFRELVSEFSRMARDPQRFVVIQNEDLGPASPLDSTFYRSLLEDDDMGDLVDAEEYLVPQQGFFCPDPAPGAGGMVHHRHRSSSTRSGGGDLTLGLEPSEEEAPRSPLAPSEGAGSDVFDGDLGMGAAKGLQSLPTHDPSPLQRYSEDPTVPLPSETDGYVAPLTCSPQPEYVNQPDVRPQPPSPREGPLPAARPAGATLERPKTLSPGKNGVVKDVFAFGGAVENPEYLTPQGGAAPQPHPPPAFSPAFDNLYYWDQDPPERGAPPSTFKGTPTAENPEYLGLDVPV
Experimental: (§1) A 2× stock solution of HER2 WT (ERBB2 0108-0000-1; ProQinase, Freiburg, Germany) corresponding to method a, was prepared as described below. Alternatively, a 2× stock solution of HER2YVMA (custom purification; Viva biotech, Shanghai, China) corresponding to method b, was prepared as described below. For method c, a 2× stock of EGFR (ERBB1 PR7295B, Thermo Fisher, Carlsbad, CA) was prepared as described below. All 2× solutions were prepared in buffer containing 50 mM HEPES, pH 7.5, 10 mM MnCl2, MgCl2, 0.005% Tween 20, 1 mM TCEP. 25 ul of 2× enzyme solution was added to a Seahorse low volume 384-well polypropylene assay plate (201288-100, Seahorse Bioscience, Chicopee, MA) containing 1 μl of compound serially diluted in 50% DMSO. To initiate the reaction, 25 μl of solution containing 2× final concentration of ATP and ProfilerPro Peptide 22 (760366, Perkin Elmer Hopkinton, MA) was added to each well. The reactions were separated on an LC3000 (Caliper Life Sciences) or a LabChip EZReader (Perkin Elmer) in kinetic mode.
(§2) At the conclusion of each assay, the data were exported from the instrument as a .rda file (LC3000) and processed in proprietary software, EZReviewer, which determines the percent of substrate converted to product within a given cycle as (P/P+S)*100 by measuring the amplitude of substrate and product peaks. Cycle time varied with amount of compounds tested between 8 and 12 cycles. Initial velocity (0-3600 s) from each reaction was determined from the slope of a plot of percent conversion at each cycle versus time (seconds). Percent inhibition was determined by dividing the slope of each reaction by the uninhibited control using 100*(1-(x/uninhibited control)). IC50 estimates were obtained by plotting the concentration of inhibitor versus percent inhibition in GraphPad Prism (GraphPad Software, San Diego, CA) using log[inhibitor] versus Response (Variable Slope Model); Y=Min+((Max-Min)/(1+((IC50/x)^Hillslope)))
(§3) • a) [HER2 WT]=12.5 nM, [ATP]=25 μM, [Peptide 22]=1 μM (ATP KMapp˜25 μM) • b) [HER2YVMA]=5 nM, [ATP]=25 μM, [Peptide 22]=1 μM (ATP KMapp˜15 μM) • c) [EGFR WT]=2 nM, [ATP]=1 mM, [Peptide 22]=1 μM (ATP KMapp˜25 μM)

EGFR WT = biological target: T2, EGFR WT (Homo sapiens, UniProt P00533); experiment: Enzymatic assay EGFR WT (method c); type: biochemical; details: [EGFR WT]=2 nM, [ATP]=1 mM, [Peptide 22]=1 μM
T2 construct: purchased Thermo Fisher, Carlsbad, CA ERBB1 PR7295B
T2 sequence (P00533 25-1210): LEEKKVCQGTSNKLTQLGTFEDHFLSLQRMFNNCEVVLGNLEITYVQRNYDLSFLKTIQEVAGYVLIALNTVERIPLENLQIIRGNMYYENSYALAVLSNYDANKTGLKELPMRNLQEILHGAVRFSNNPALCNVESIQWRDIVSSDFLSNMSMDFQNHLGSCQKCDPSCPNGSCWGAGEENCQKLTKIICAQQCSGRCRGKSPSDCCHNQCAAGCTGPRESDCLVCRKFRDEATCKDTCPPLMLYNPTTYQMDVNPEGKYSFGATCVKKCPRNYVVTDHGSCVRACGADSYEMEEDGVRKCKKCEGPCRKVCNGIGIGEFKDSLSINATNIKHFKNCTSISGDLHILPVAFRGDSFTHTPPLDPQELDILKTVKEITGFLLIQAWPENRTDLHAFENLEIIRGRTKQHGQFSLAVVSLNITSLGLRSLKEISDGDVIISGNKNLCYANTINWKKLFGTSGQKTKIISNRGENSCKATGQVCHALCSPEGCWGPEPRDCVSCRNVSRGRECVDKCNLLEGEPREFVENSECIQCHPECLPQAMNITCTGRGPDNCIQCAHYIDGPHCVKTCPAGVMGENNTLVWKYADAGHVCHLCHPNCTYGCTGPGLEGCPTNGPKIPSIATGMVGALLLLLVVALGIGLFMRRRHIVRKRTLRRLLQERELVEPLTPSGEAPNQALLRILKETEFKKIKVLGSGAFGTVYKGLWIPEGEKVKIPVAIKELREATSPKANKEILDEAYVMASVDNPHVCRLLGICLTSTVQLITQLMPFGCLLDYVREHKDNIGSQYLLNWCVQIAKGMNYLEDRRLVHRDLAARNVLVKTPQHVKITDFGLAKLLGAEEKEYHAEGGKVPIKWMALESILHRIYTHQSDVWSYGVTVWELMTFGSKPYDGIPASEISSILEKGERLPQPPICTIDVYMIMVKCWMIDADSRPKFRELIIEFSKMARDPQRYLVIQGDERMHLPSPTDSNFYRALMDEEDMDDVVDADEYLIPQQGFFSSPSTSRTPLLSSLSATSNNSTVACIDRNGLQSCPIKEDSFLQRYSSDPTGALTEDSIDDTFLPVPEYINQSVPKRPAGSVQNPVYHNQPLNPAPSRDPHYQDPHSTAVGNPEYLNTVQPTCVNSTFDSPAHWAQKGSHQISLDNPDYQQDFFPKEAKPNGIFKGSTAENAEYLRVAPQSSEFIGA
Experimental: as §1, §2, §3

EGFR = EGFR (Homo sapiens, UniProt P00533); experiment: EGFR signaling (pEGFR Tyr1068/total EGFR MSD) in A431 cells; type: cell-based; parameters: endogenous in cells; host or cells: A431, N87; details: for Selectivity A431 EC50/BT474 EC50: ratio A431 pEGFR EC50 to BT474 pHER2 EC50; for Selectivity A431 EC50/HEKYVMA EC50: ratio A431 pEGFR EC50 to HEK YVMA pHER2 EC50
Chain of EGFR (P00533 25-1210): as above
Experimental: In addition to the engineered cell lines, the following cell lines were used: BT474 (human breast carcinoma), N87 (human gastric carcinoma), NCI-H1781 (human lung adenocarcinoma), and A431 (human epidermoid carcinoma); all cell lines were obtained from the American Type Culture Collection (ATCC, Manassas, VA). NCI-H1781 were grown in complete RPMI 1640 (Life Technologies, Carlsbad, CA) supplemented with 15% fetal bovine serum (FBS, Life Technologies, Carlsbad, CA) and 1% Penicillin-Streptomycin (P/S, Life Technologies, Carlsbad, CA). N87 cells were grown in complete RPMI 1640 supplemented with 10% FBS and 1% P/S. BT474 and A431 cells were grown in DMEM (Life Technologies, Carlsbad, CA) supplemented with 10% FBS and 1% P/S. All cells were maintained and propagated in a humidified 5% CO2 incubator at 37° C.
A431 Cells were plated in 96-well tissue-culture treated plates in full media for 6 h, then starved with media containing 0.1% FBS for overnight. Media was replaced with low serum media (1% FBS) containing compound at 10, 3.3, 1.1, 0.37, 0.12, 0.041, 0.014, 0.005 μM or DMSO control (0.1%). Cells were incubated for 1.5 hr, then stimulated with 100 ng/mL human EGF (PeproTech, Rocky Hill, NJ) for 10 minutes. Cells were washed with cold PBS, and lysed for 30 min on ice in complete MSD lysis buffer (prepared as described in HER2 Signaling Method); lysates were stored at −70° C. until further analysis. EGFR signaling was evaluated using phospho (Tyr 1068)/total EGFR whole cell lysate kit (Meso-Scale Discovery, Gaithersburg, MD). The phospho EGFR signal was normalized to total EGFR for each sample; results are reported as % DMSO control. The normalized data was fitted using a sigmoidal curve analysis program (Graph Pad Prism version 6) with variable Hill slope to determine EC50 values. The results are provided in Table 4, under column titled “A431-pEGFR EC50”.

[1] = A431 cells, read-out: A431 pEGFR EC50

Row | SMILES | pIC50 (HER2 WT) | pIC50 (EGFR WT) | pEC50 (EGFR; [1]) | Selectivity A431 EC50/BT474 EC50 (EGFR) | Selectivity A431 EC50/HEKYVMA EC50 (EGFR) | pEC50 (EGFR; A431 pEGFR EC50, A431 cells)
1 | Cc1ccc(Oc2ccc(Nc3ncnc4sc5c(c34)C[C@@H](C)N(C(=O)/C=C/CN(C)C)[C@H]5C)cc2C)cn1 (racemic) [Compound 149, (E)-1-(6,8-cis-dimethyl-4-((3-methyl-4-((6-methylpyridin-3-yl)oxy)phenyl)amino)-5,8-dihydropyrido[4′,3′:4,5]thieno[2,3-d]pyrimidin-7(6H)-yl)-4-(dimethylamino)but-2-en-1-one] | > 7.00 | < 5.00 | 6.00 to 7.00 | B (B: ≥ 20 and < 100) | D (D: ≥ 5 and < 10) | 
2 | Cc1ccc(Oc2ccc(Nc3ncnc4sc5c(c34)C[C@@H](C)N(C(=O)/C=C/CN(C)C)[C@@H]5C)cc2C)cn1 (racemic) [Compound 165, (E)-1-(6,8-trans-dimethyl-4-((3-methyl-4-((6-methylpyridin-3-yl)oxy)phenyl)amino)-5,8-dihydropyrido[4′,3′:4,5]thieno[2,3-d]pyrimidin-7(6H)-yl)-4-(dimethylamino)but-2-en-1-one] | 6.00 to 7.00 | < 5.00 | 5.00 to 6.00 | B (B: ≥ 20 and < 100) | D (D: ≥ 5 and < 10) | 
3 | C=CC(=O)N1[C@H](C)Cc2c(sc3ncnc(Nc4ccc(Oc5ccc(C)nc5)c(C)c4)c23)[C@H]1C (racemic) [Compound 166, 1-(6,8-trans-dimethyl-4-((3-methyl-4-((6-methylpyridin-3-yl)oxy)phenyl)amino)-5,8-dihydropyrido[4′,3′:4,5]thieno[2,3-d]pyrimidin-7(6H)-yl)prop-2-en-1-one] | 6.00 to 7.00 | < 5.00 | 6.00 to 7.00 | B (B: ≥ 20 and < 100) | C (C: ≥ 10 and < 20) | 
4 | C=CC(=O)N1Cc2sc3ncnc(Nc4ccc(Oc5ccc(C)nc5)c(C)c4)c3c2C(C)C1 (single isomer, unassigned) [Compound 145] | > 7.00 | < 5.00 | 6.00 to 7.00 | C (C: ≥ 10 and < 20) | E (E: >1 and < 5) | 
5 | C=CC(=O)N1Cc2sc3ncnc(Nc4ccc(Oc5ccc(C)nc5)c(C)c4)c3c2C(C)C1 (single isomer, unassigned) [Compound 146] | > 7.00 | 5.00 to 6.00 | > 7.00 | C (C: ≥ 10 and < 20) | D (D: ≥ 5 and < 10) | 
6 | Cc1ccc(Oc2ccc(Nc3ncnc4sc5c(c34)C(C)N(C(=O)C=CCN(C)C)C5)cc2C)cn1 (single isomer, unassigned) [Compound 147] | > 7.00 | < 5.00 | > 7.00 | B (B: ≥ 20 and < 100) | D (D: ≥ 5 and < 10) | 
7 | Cc1ccc(Oc2ccc(Nc3ncnc4sc5c(c34)C(C)N(C(=O)C=CCN(C)C)C5)cc2C)cn1 (single isomer, unassigned) [Compound 148] | 5.00 to 6.00 | < 5.00 | < 5.00 | B (B: ≥ 20 and < 100) | C (C: ≥ 10 and < 20) | 
8 | COc1ccc(Oc2ccc(Nc3ncnc4sc5c(c34)C(C)CN(C(=O)C=CCN(C)C)C5)cc2C)cn1 (single isomer, unassigned) [Compound 159] | 6.00 to 7.00 | < 5.00 | 6.00 to 7.00 | C (C: ≥ 10 and < 20) | E (E: >1 and < 5) | 
9 | COc1ccc(Oc2ccc(Nc3ncnc4sc5c(c34)C(C)CN(C(=O)C=CCN(C)C)C5)cc2C)cn1 (single isomer, unassigned) [Compound 160] | > 7.00 | < 5.00 | 6.00 to 7.00 | D (D: ≥ 5 and < 10) | D (D: ≥ 5 and < 10) | 
10 | Cc1ccc(Oc2ccc(Nc3ncnc4sc5c(c34)CC(C)N(C(=O)C=CCN(C)C)C5C)cc2C)cn1 (single isomer, unassigned) [Compound 161] | > 7.00 | < 5.00 | > 7.00 | D (D: ≥ 5 and < 10) | E (E: >1 and < 5) | 
11 | Cc1ccc(Oc2ccc(Nc3ncnc4sc5c(c34)CC(C)N(C(=O)C=CCN(C)C)C5C)cc2C)cn1 (single isomer, unassigned) [Compound 162] | 5.00 to 6.00 | < 5.00 | < 5.00 | B (B: ≥ 20 and < 100) | B (B: ≥ 20 and < 100) | 
12 | Cc1ccc(Oc2ccc(Nc3ncnc4sc5c(c34)CN(C(=O)C=CCN(C)C)C5C)cc2C)cn1 (single isomer, unassigned) [Compound 169] | > 7.00 | < 5.00 | 6.00 to 7.00 | C (C: ≥ 10 and < 20) | D (D: ≥ 5 and < 10) | 
13 | Cc1ccc(Oc2ccc(Nc3ncnc4sc5c(c34)CN(C(=O)C=CCN(C)C)C5C)cc2C)cn1 (single isomer, unassigned) [Compound 170] | 5.00 to 6.00 | < 5.00 | > 7.00 | B (B: ≥ 20 and < 100) | B (B: ≥ 20 and < 100) | 
14 | Cc1ccc(Oc2ccc(Nc3ncnc4sc5c(c34)C(C)CN(C(=O)C=CCN3CCOCC3)C5)cc2C)cn1 (single isomer, unassigned) [Compound 176] | 6.00 to 7.00 | < 5.00 | 5.00 to 6.00 | B (B: ≥ 20 and < 100) | B (B: ≥ 20 and < 100) | 
15 | Cc1ccc(Oc2ccc(Nc3ncnc4sc5c(c34)C(C)CN(C(=O)C=CCN3CCOCC3)C5)cc2C)cn1 (single isomer, unassigned) [Compound 177] | > 7.00 | < 5.00 | 6.00 to 7.00 | C (C: ≥ 10 and < 20) | D (D: ≥ 5 and < 10) | 
16 | Cc1ccc(Oc2ccc(Nc3ncnc4sc5c(c34)CCN(C(=O)/C=C/CN3CC4CCC(C4)C3)C5)cc2C)cn1 [Compound 16, (E)-4-(3-azabicyclo[3.2.1]octan-3-yl)-1-(4-((3-methyl-4-((6-methylpyridin-3-yl)oxy)phenyl)amino)-5,8-dihydropyrido[4′,3′:4,5]thieno[2,3-d]pyrimidin-7(6H)-yl)but-2-en-1-one benzenesulfonate salt] | > 7.00 |  |  | D (D: ≥ 5 and < 10) | D (D: ≥ 5 and < 10) | 6.00 to 7.00
